From patent US5380759A, “Methyl N-[6-(3,4,5-trimethoxybenzloxy)imidazo[1,2-b]pyridazin-2-zyl]carbamate used to treat leukemia” (priority 1987, dated 1995)
Starred links: 1 amine or outer side, 2 acyl side, 3 side chain; linkers in the order of their positions; H or OH if unused. Positions of bridges follow the written chain, without caps; N, C: chain ends. Non-standard residues stand in square brackets, D forms with d. Residues, ends and D or L forms follow the SMILES beside them. Chains are numbered I, II in the order given. Actinocin(9to1) = Cc1c2oc3c(C)ccc(C(=O)[*:1])c3nc-2c(C(=O)[*:2])c(N)c1=O; NMeV = CN[C@H](C(=O)O)C(C)C; Sar = CNCC(=O)O

How the values were obtained:
P388/ActD = assay: In vivo activity against drug resistant tumour P388/ActD; parameters: species or system mouse; settings: optimum dose 0.5 mg/kg
Protocol: (§1) CD2-F1 mice, of the same sex, weighing within a 3 gram range surrounding 20 g, are used for this test. Control and test animals are injected intraperitoneally with a suspension of 10^6 viable P388/O tumour cells on day 0. In each test several dose levels which bracket the LD20 for the compound are evaluated; each dose level group contains 6 animals. The test compounds are prepared either in physiologic saline containing 0.05% Tween 80 or distilled water containing 5% dextrose and are administered intraperitoneally on days 1,5 and 9 relative to tumour implant. Doses are on a mg/kg basis according to individual animals' body weights. The day of death for each animal is recorded and the median day of death identified for each group. The difference between the median survival time for treated and control groups is expressed as a percentage increase in life span (% ILS).
(§2) E. Activity Against Drug-Resistant Tumours
(§3) Using a similar procedure to the Lymphocytic Leukaemia P388/O test, the compound of Example 1 was evaluated against P388/O tumours which had been made resistant to the following standard, clinically used anti-tumour agents: […]

P388/CPA = assay: In vivo activity against drug resistant tumour P388/CPA; parameters: species or system mouse; settings: optimum dose 265.0 mg/kg
P388/5FU = assay: In vivo activity against drug resistant tumour P388/5FU; parameters: species or system mouse; settings: optimum dose 20.0 mg/kg
Protocol: as §1, §2, §3

P388/MTX = assay: In vivo activity against drug resistant tumour P388/MTX; parameters: species or system mouse; settings: optimum dose 3.0 mg/kg
Protocol: as §1, §2, §3

microtubule function = settings: cited from earlier work
P388/VCR = assay: In vivo activity against drug resistant tumour P388/VCR; parameters: species or system mouse; settings: optimum dose 1.5 mg/kg
Protocol: as §1, §2, §3

Cc1c2oc3c(C)ccc(C(=O)N[C@@H]4C(=O)N[C@H](C(C)C)C(=O)N5CCC[C@H]5C(=O)N(C)CC(=O)N(C)[C@@H](C(C)C)C(=O)O[C@@H]4C)c3nc-2c(C(=O)N[C@@H]2C(=O)N[C@H](C(C)C)C(=O)N3CCC[C@H]3C(=O)N(C)CC(=O)N(C)[C@@H](C(C)C)C(=O)O[C@@H]2C)c(N)c1=O [ActD, actinomycin D, reference compound] (I: T[dV]P[Sar][NMeV] / II: T[dV]P[Sar][NMeV]; ester I:1-I:C, II:1-II:C; linker I:N-II:N via Actinocin(9to1))
60 Day Survivors (P388/ActD): 0/6
% ILS (P388/ActD): +27%

O=P1(N(CCCl)CCCl)NCCCO1 (centres unmarked) [CPA, cylophosphamide, reference compound]
60 Day Survivors (P388/CPA): 0/6
% ILS (P388/CPA): +55%

O=c1[nH]cc(F)c(=O)[nH]1 [Example 5FU, 5-fluorouracil, reference compound]
60 Day Survivors (P388/5FU): 0/6
% ILS (P388/5FU): +71%

CN(Cc1cnc2nc(N)nc(N)c2n1)c1ccc(C(=O)N[C@@H](CCC(=O)O)C(=O)O)cc1 [MTX, methotrexate, reference compound]
60 Day Survivors (P388/MTX): 0/6
% ILS (P388/MTX): +15%

CC[C@]1(O)C[C@H]2CN(CCc3c([nH]c4ccccc34)[C@@](C(=O)OC)(c3cc4c(cc3OC)N(C=O)[C@H]3[C@@](O)(C(=O)OC)[C@H](OC(C)=O)[C@]5(CC)C=CCN6CC[C@]43[C@@H]65)C2)C1 [VCR, Vincristine, reference compound]
microtubule inhibitory activity (microtubule function): inhibitor of microtubule function
60 Day Survivors (P388/VCR): 0/6
% ILS (P388/VCR): +36%
